Test results: patent publication US20250144067A1, “PERSONALIZED STARVATION THERAPY FOR CANCER” (Faeth Therapeutics, Inc., priority 2021, published 2025)
Structures can show the parent of a compound that is named as a salt.

Experiments:
[1] = test system: NCI-H292 lung cancer cells; experiment: FDA drug screening, complete media vs cholesterol-free media without statin (TABLE 1); assay type: cell-based, human
[2] = test system: NCI-H292 lung cancer cells; experiment: FDA drug screening, complete media vs cholesterol-free media with simvastatin (TABLE 2); assay type: cell-based, human; details: for Cholesterol-free media + simvastatin (0.04 μM) / Complete Media: NCI-H292 cells
[3] = NCI-H292 cells, cholesterol-free media without statin
[4] = FDA drug library screen, cholesterol-free media with simvastatin 0.04 μM
[5] = FDA drug library screen, complete media
[6] = complete media minus cholesterol-free media + simvastatin, >0 enhanced anti-cancer activity, about 0 neutral, <0 antagonist
[7] = Complete minus Cholesterol-free, […]
[8] = NCI-H292 cells, FDA drug library screen, cholesterol-free media without statin
[9] = NCI-H292 cells, FDA drug library screen, complete media
[10] = FDA library drug in cholesterol-free media with simvastatin 0.04 μM
[11] = FDA library drug in complete media
[12] = complete media vs cholesterol-free media + simvastatin (0.04 μM), […]
[13] = NCI-H292 cells, cholesterol-free media without statin, FDA drug library screen
[14] = NCI-H292 cells, complete media, FDA drug library screen
[15] = complete vs cholesterol-free media, >0 enhanced anti-cancer activity, about 0 neutral, <0 antagonist
[16] = cholesterol-free media with simvastatin 0.04 μM, cell growth value in FDA drug screen
[17] = complete media, cell growth value in FDA drug screen
[18] = drug in cholesterol-free media with simvastatin 0.04 μM
[19] = complete media vs cholesterol-free media + simvastatin (0.04 μM), >0 enhanced anti-cancer activity, about 0 neutral, <0 antagonist
[20] = Complete minus Cholesterol-free, greater than 0 enhanced anti-cancer activity, about 0 neutral, below 0 antagonist
[21] = Complete minus Cholesterol-free, >0 enhanced anti-cancer activity, about 0 neutral, <0 antagonist
[22] = Complete minus Cholesterol-free, greater than 0 enhanced anti-cancer activity, about 0 neutral, below 0 antagonists
[23] = NCI-H292 cells in cholesterol-free media without statin
[24] = NCI-H292 cells in complete media
[25] = complete vs cholesterol-free media, […]
[26] = cholesterol-free media with simvastatin 0.04 μM, FDA drug library screen (TABLE 2)
[27] = complete media, FDA drug library screen (TABLE 2)

CN(C)CCCOc1nn(Cc2ccccc2)c2ccccc12 [Benzydamine (hydrochloride)]
Cholesterol-free [1, 3]: 1.444
Complete ([1]; NCI-H292 cells, complete media): 1.002
Difference ([1]; complete vs cholesterol-free media, greater than 0 enhanced anti-cancer activity, about 0 neutral, below 0 antagonists): −0.44
Cholesterol-free media + simvastatin (0.04 μM) [2, 4]: 0.5074
Complete Media [2, 5]: 1.108
Difference [2, 6]: 0.60

CO[C@@H]1[C@H](OC(=O)/C=C/C=C/C=C/C=C/C(=O)O)CC[C@]2(CO2)[C@H]1[C@@]1(C)O[C@@H]1CC=C(C)C [Fumagillin]
Difference [1, 7]: −0.08
Cholesterol-free [1, 8]: 0.6031
Complete [1, 9]: 0.519
Cholesterol-free media + simvastatin (0.04 μM) [2, 10]: 1.348
Complete Media [2, 11]: 1.08
Difference [2, 12]: −0.27

CCN1CCCC1CNC(=O)c1cc(S(=O)(=O)CC)c(N)cc1OC (centres unmarked) [Amisulpride]
Cholesterol-free [1, 13]: 1.175
Complete [1, 14]: 1.349
Difference [1, 15]: 0.17
Cholesterol-free media + simvastatin (0.04 μM) [2, 16]: 0.8703
Complete Media [2, 17]: 0.9333
Difference [2, 6]: 0.06

CC1(C)S[C@@H]2[C@H](NC(=O)[C@H](NC(=O)N3CCN(S(C)(=O)=O)C3=O)c3ccccc3)C(=O)N2[C@H]1C(=O)[O-].[Na+] [Mezlocillin (sodium)]
Cholesterol-free [1, 13]: 0.8225
Complete [1, 14]: 1.264
Difference [1, 15]: 0.44
Cholesterol-free media + simvastatin (0.04 μM) [2, 18]: 1.179
Complete Media ([2]; drug in complete media): 0.9159
Difference [2, 19]: −0.26

CN(C)CCC=C1c2ccccc2C(C)(C)c2ccccc21 [Melitracen (hydrochloride)]
Difference [1, 20]: −0.10
Cholesterol-free [1, 8]: 1.283
Complete [1, 9]: 1.187
Cholesterol-free media + simvastatin (0.04 μM) [2, 4]: 1.24
Complete Media [2, 5]: 1.495
Difference [2, 6]: 0.26

O=C1CCC[C@@H]2[C@H]3CCC[N+]4([O-])CCC[C@@H](CN12)[C@@H]34 (some centres unmarked) [Oxymatrine]
Difference [1, 21]: 0.05
Cholesterol-free [1, 13]: 0.9493
Complete [1, 14]: 0.9958
Cholesterol-free media + simvastatin (0.04 μM) [2, 10]: 1.185
Complete Media [2, 11]: 0.9014
Difference [2, 19]: −0.28

Nc1nc(/C(=C/CC(=O)O)C(=O)N[C@@H]2C(=O)N3C(C(=O)O)=CCS[C@H]23)cs1 [Ceftibuten (dihydrate)]
Cholesterol-free [1, 13]: 0.6461
Complete [1, 14]: 1.242
Difference [1, 15]: 0.60
Cholesterol-free media + simvastatin (0.04 μM) [2, 4]: 1.353
Complete Media [2, 5]: 1.195
Difference [2, 19]: −0.16

N[C@@H](Cc1cc(I)c(Oc2cc(I)c(O)c(I)c2)c(I)c1)C(=O)O [L-Thyroxine]
Difference [1, 21]: −0.28
Cholesterol-free [1, 3]: 1.11
Complete ([1]; NCI-H292 cells, complete media): 0.8302
Cholesterol-free media + simvastatin (0.04 μM) [2, 4]: 1.059
Complete Media [2, 5]: 1.284
Difference [2, 6]: 0.23

COc1ccc(-c2cc(C(F)F)nn2-c2ccc(S(N)(=O)=O)cc2)cc1F [Deracoxib]
Difference [1, 22]: −0.50
Cholesterol-free [1, 23]: 1.682
Complete [1, 24]: 1.181
Cholesterol-free media + simvastatin (0.04 μM) [2, 4]: 1.651
Complete Media [2, 5]: 1.821
Difference [2, 6]: 0.17

Nc1ncnc2[nH]cnc12 [Adenine]
Difference [1, 22]: −0.97
Cholesterol-free [1, 23]: 1.858
Complete [1, 24]: 0.8914
Cholesterol-free media + simvastatin (0.04 μM) [2, 4]: 1.106
Complete Media [2, 5]: 1.256
Difference [2, 6]: 0.15

CC(C)(CO)C(O)C(=O)NCCCO (racemic) [DL-Panthenol]
Difference [1, 22]: −0.82
Cholesterol-free [1, 23]: 1.816
Complete [1, 24]: 0.9995
Cholesterol-free media + simvastatin (0.04 μM) [2, 4]: 1.177
Complete Media [2, 5]: 1.049
Difference [2, 19]: −0.13

Masitinib (mesylate)
Difference [1, 20]: −0.14
Cholesterol-free [1, 8]: 1.027
Complete [1, 9]: 0.8899
Cholesterol-free media + simvastatin (0.04 μM) [2, 4]: 1.086
Complete Media [2, 5]: 1.002
Difference [2, 19]: −0.08

CN1C(=O)C[C@@H](C(=O)N[C@@H](Cc2c[nH]cn2)C(=O)N2CCC[C@H]2C(N)=O)NC1=O [Taltirelin]
Cholesterol-free [1, 3]: 1.305
Complete ([1]; NCI-H292 cells, complete media): 0.871
Difference [1, 25]: −0.43
Cholesterol-free media + simvastatin (0.04 μM) [2, 18]: 1.39
Difference [2, 12]: −0.24

COc1ccc(C[C@H](N)C(=O)N[C@H]2[C@@H](O)[C@H](n3cnc4c(N(C)C)ncnc43)O[C@@H]2CO)cc1 [Puromycin (dihydrochloride)]
Difference [1, 21]: −0.02
Cholesterol-free [1, 13]: 0.005958
Complete [1, 14]: −0.01645
Cholesterol-free media + simvastatin (0.04 μM) [2, 26]: −0.002227
Complete Media [2, 27]: −0.05066
Difference ([2]; complete media minus cholesterol-free media + simvastatin (0.04 μM), >0 enhanced anti-cancer activity, about 0 neutral, <0 antagonist): −0.05

Bivalirudin (TFA)
Cholesterol-free [1, 13]: 1.02
Complete [1, 14]: 1.118
Difference [1, 25]: 0.10
Complete Media [2, 5]: 0.9368
Difference [2, 12]: −0.13

Cl.N[C@@H](CS)C(=O)O [L-Cysteine (hydrochloride)]
Difference [1, 7]: −0.04
Cholesterol-free [1, 13]: 1.166
Complete [1, 14]: 1.124
Cholesterol-free media + simvastatin (0.04 μM) [2, 18]: 1.122
Complete Media ([2]; drug in complete media): 0.9187
Difference [2, 12]: −0.20

CCCCN1C[C@H](O)[C@@H](O)[C@H](O)[C@H]1CO [Miglustat (hydrochloride)]
Difference [1, 22]: −0.51
Cholesterol-free [1, 23]: 1.836
Complete [1, 24]: 1.323
Cholesterol-free media + simvastatin (0.04 μM) [2, 4]: 0.8113
Complete Media [2, 5]: 0.7082
Difference [2, 19]: −0.10

N[C@@H](C(=O)N[C@@H]1C(=O)N2C(C(=O)O)=C(Cl)CS[C@H]12)c1ccccc1 [Cefaclor]
Difference [1, 20]: −0.11
Cholesterol-free [1, 8]: 1.02
Complete [1, 9]: 0.9111
Cholesterol-free media + simvastatin (0.04 μM) [2, 16]: 1.593
Complete Media [2, 17]: 1.696
Difference [2, 6]: 0.10

CC(=O)[C@@]1(O)CC[C@H]2[C@@H]3C[C@H](C)C4=CC(=O)C=C[C@]4(C)[C@@]3(F)[C@@H](O)C[C@@]21C [Fluorometholone]
Difference [1, 20]: −0.08
Cholesterol-free [1, 8]: 1.249
Cholesterol-free media + simvastatin (0.04 μM) [2, 18]: 0.7423
Complete Media ([2]; drug in complete media): 0.5602
Difference [2, 19]: −0.18

Cc1nc(Nc2ncc(C(=O)Nc3c(C)cccc3Cl)s2)cc(N2CCN(CCO)CC2)n1 [Dasatinib]
Difference [1, 20]: −0.15
Cholesterol-free [1, 8]: 0.4806
Complete [1, 9]: 0.3333
Cholesterol-free media + simvastatin (0.04 μM) [2, 4]: 0.3286
Complete Media [2, 5]: 0.514
Difference [2, 6]: 0.19

O=S(=O)(O)c1ccc2[nH]c(-c3ccccc3)nc2c1 [Ensulizole]
Difference [1, 7]: 0.07
Cholesterol-free [1, 13]: 0.8614
Complete [1, 14]: 0.9314
Cholesterol-free media + simvastatin (0.04 μM) [2, 26]: 0.9021
Complete Media [2, 27]: 0.8833
Difference ([2]; complete media minus cholesterol-free media + simvastatin (0.04 μM), […]): −0.02

Nc1ncnc2c1ncn2[C@@H]1O[C@H](CO)[C@@H](O)[C@H]1O [Adenosine]
Difference [1, 20]: −0.14
Complete [1, 9]: 0.8055
Cholesterol-free media + simvastatin (0.04 μM) [2, 10]: 1.888
Complete Media [2, 11]: 1.6
Difference [2, 19]: −0.29
